Assay [1] has as its system HCT-116. Kind of assay: Antiproliferative activity against human HCT-116 cells. The class given is functional, cell-based.
For another assay, the system named is PC-3. Kind of assay: Antiproliferative activity against human PC-3 cells. The class given is functional, cell-based.
Assay [2] concerns MDA-MB-231. Kind of assay: Antiproliferative activity against human MDA-MB-231 cells assessed as reduction in cell viability. The class given is functional, cell-based.
The subject of another assay is HT-29. Briefly: Antiproliferative activity against human HT-29 cells assessed as reduction in cell viability. The class given is functional, cell-based.
The subject of another assay is A549. Kind of assay: Antiproliferative activity against human A549 cells. The class given is functional, cell-based.
In assay [3] the test system is MDA-MB-231. Briefly: Antiproliferative activity against human MDA-MB-231 cells. The class given is functional, cell-based. Conditions: Homo sapiens, MDA-MB-231.
Assay [4] relates to HCT-116. Kind of assay: Antiproliferative activity against human HCT-116 cells assessed as reduction in cell viability. In kind it is functional, cell-based. The settings on record: Homo sapiens, HCT-116.
Another assay has as its system DLD-1. Briefly: Cytotoxicity against human DLD-1 cells assessed as cell growth inhibition measured after 48 hrs by MTT assay. The class given is functional. On the technique in general: Tetrazolium assays rely on reduction of a dye to a coloured formazan, in cell work by metabolically active cells.
The test system of another assay is HeLa. Briefly: Cytotoxicity against human HeLa cells assessed as cell growth inhibition measured after 48 hrs by MTT assay. The class given is functional.
A further assay deals with SiHa. Kind of assay: Cytotoxicity against human SiHa cells assessed as cell growth inhibition measured after 48 hrs by MTT assay. In kind it is functional.
A short description of assay [5]: Cytotoxicity against human U87 cells assessed as cell growth inhibition measured after 48 hrs by MTT assay. Conditions: U-87 MG. In kind it is functional, U-87MG ATCC.
A further assay relates to B16. Kind of assay: Cytotoxicity against mouse B16 cells assessed as cell growth inhibition measured after 48 hrs by MTT assay. In kind it is functional.
Another assay has as its system A 172. Briefly: Cytotoxicity against human A-172 cells assessed as cell growth inhibition measured after 48 hrs by MTT assay. In kind it is functional.

Molecules are shown by their SMILES. pIC50: −log10 of the molar value.

For `CC1=C(CCCCOC(=O)C[C@H]2O[C@@H]3O[C@@]4(C)CC[C@H]5[C@H](C)CC[C@@H]([C@H]2C)[C@@]35OO4)C(=O)C(C(C)C)=CC1=O`, the pIC50 in the assay on HCT-116 [1] and in the assay on PC-3 was less than 4.00 in each case.
For `CCOC(=O)c1cc2ccc(OCCn3cc(CO[C@H]4O[C@@H]5O[C@@]6(C)CC[C@H]7[C@H](C)CC[C@@H]([C@H]4C)[C@@]57OO6)nn3)cc2oc1=O`, the pIC50 in the assay on MDA-MB-231 [2] and with HT-29 was 6.37 throughout.
In the case of `Cc1c(Cl)c(=O)oc2cc(OCCCn3cc(CO[C@H]4O[C@@H]5O[C@@]6(C)CC[C@H]7[C@H](C)CC[C@@H]([C@H]4C)[C@@]57OO6)nn3)ccc12`, the pIC50 in the assay on MDA-MB-231 [2] and in the assay on HT-29 was 6.37 in each case.
Regarding `Cc1c(C)c2ccc(OCCCn3cc(CO[C@H]4O[C@@H]5O[C@@]6(C)CC[C@H]7[C@H](C)CC[C@@H]([C@H]4C)[C@@]57OO6)nn3)cc2oc1=O`, the pIC50 in the assay with MDA-MB-231 [2] and in the assay on HT-29 was 6.37 throughout.
As to `C[C@H]1[C@H](OCCNC(=O)c2ccc(COc3ccc(/C=C/S(=O)(=O)Nc4c(Cl)cccc4Cl)cc3)cc2)O[C@@H]2O[C@@]3(C)CC[C@H]4[C@H](C)CC[C@@H]1[C@@]24OO3`, the pIC50 with A549, in the assay with MDA-MB-231 [3] and in the assay with HT-29 was 7.05 in each case.
For `C[C@H]1[C@H](OCCNC(=O)c2ccc(COc3ccc(/C=C/S(=O)(=O)Nc4ccccc4)cc3)cc2)O[C@@H]2O[C@@]3(C)CC[C@H]4[C@H](C)CC[C@@H]1[C@@]24OO3`, the pIC50 in the assay with MDA-MB-231 [3] and in the assay with HT-29 was 7.05 in each case.
Turning to `Cc1ccccc1NS(=O)(=O)/C=C/c1ccc(OCc2ccc(C(=O)NCCO[C@@H]3O[C@@H]4O[C@@]5(C)CC[C@H]6[C@H](C)CC[C@@H]([C@H]3C)[C@@]46OO5)cc2)cc1`, the pIC50 in the assay on MDA-MB-231 [3] and in the assay with HT-29 was 7.05 throughout.
In the case of `CC1=C(CCCCOC(=O)CCC(=O)O[C@@H]2O[C@@H]3O[C@@]4(C)CC[C@H]5[C@H](C)CC[C@@H]([C@H]2C)[C@@]35OO4)C(=O)C(C(C)C)=CC1=O`, the pIC50 in the assay with HCT-116 [1] and in the assay on PC-3 was less than 4.00 each time.
Regarding `CC1=C(CCCCO[C@H]2O[C@@H]3O[C@@]4(C)CC[C@H]5[C@H](C)CC[C@@H]([C@H]2C)[C@@]35OO4)C(=O)C(C(C)C)=CC1=O`, the pIC50 in the assay on HCT-116 [1] and in the assay with PC-3 was less than 4.00 each time.
`CC1=C(CCCOC(=O)C[C@H]2O[C@@H]3O[C@@]4(C)CC[C@H]5[C@H](C)CC[C@@H]([C@H]2C)[C@@]35OO4)C(=O)C(C(C)C)=CC1=O`: the pIC50 in the assay on HCT-116 [1] and in the assay on PC-3 was less than 4.00 throughout.
With `CC1=CC(=O)C(C(C)C)=CC1=O` [THYMOQUINONE], the pIC50 with HCT-116 [1] and in the assay with PC-3 was 4.30 each time.
For the compound `C[C@H]1[C@@H](OCc2cn(CCOc3ccc4c(C(F)(F)F)cc(=O)oc4c3)nn2)O[C@@H]2O[C@@]3(C)CC[C@H]4[C@H](C)CC[C@@H]1[C@@]24OO3`, the pIC50 in the assay on MDA-MB-231 [2], with HCT-116 [4] and in the assay on HT-29 was 6.37 each time.
For `Cc1c(Cl)c(=O)oc2cc(OCCn3cc(CO[C@H]4O[C@@H]5O[C@@]6(C)CC[C@H]7[C@H](C)CC[C@@H]([C@H]4C)[C@@]57OO6)nn3)ccc12`, the pIC50 in the assay with MDA-MB-231 [2], in the assay on HCT-116 [4] and in the assay on HT-29 was 6.37 throughout.
Take `Cc1c(C)c2ccc(OCCn3cc(CO[C@H]4O[C@@H]5O[C@@]6(C)CC[C@H]7[C@H](C)CC[C@@H]([C@H]4C)[C@@]57OO6)nn3)cc2oc1=O`: the pIC50 in the assay on MDA-MB-231 [2], in the assay with HCT-116 [4] and with HT-29 was 6.37 each time.
Consider `CC1=C(CCCOC(=O)CCC(=O)O[C@@H]2O[C@@H]3O[C@@]4(C)CC[C@H]5[C@H](C)CC[C@@H]([C@H]2C)[C@@]35OO4)C(=O)C(C(C)C)=CC1=O`, for which the pIC50 in the assay on HCT-116 [1] and in the assay on PC-3 was less than 4.00 in each case.
`C[C@H]1[C@@H](OCc2cn(CCCOc3ccc4c(C(F)(F)F)cc(=O)oc4c3)nn2)O[C@@H]2O[C@@]3(C)CC[C@H]4[C@H](C)CC[C@@H]1[C@@]24OO3`: the pIC50 with MDA-MB-231 [2], in the assay on HCT-116 [4] and in the assay on HT-29 was 6.37 each time.
For the compound `C[C@H]1[C@@H](OC(=O)CCC(=O)O)O[C@@H]2O[C@@]3(C)CC[C@H]4[C@H](C)CC[C@@H]1[C@@]24OO3`, the pIC50 in the assay on HCT-116 [1] and with PC-3 was 5.28 in each case.
With `CC1=C(CCCO[C@H]2O[C@@H]3O[C@@]4(C)CC[C@H]5[C@H](C)CC[C@@H]([C@H]2C)[C@@]35OO4)C(=O)C(C(C)C)=CC1=O`, the pIC50 in the assay on HCT-116 [1] and in the assay on PC-3 was less than 4.00 in each case.
As to `CC1=C(CCOC(=O)CCC(=O)O[C@@H]2O[C@@H]3O[C@@]4(C)CC[C@H]5[C@H](C)CC[C@@H]([C@H]2C)[C@@]35OO4)C(=O)C(C(C)C)=CC1=O`, the pIC50 in the assay with HCT-116 [1] and in the assay on PC-3 was 5.62 in each case.
Regarding `Cc1cc(=O)oc2cc(OCCCn3cc(CO[C@H]4O[C@@H]5O[C@@]6(C)CC[C@H]7[C@H](C)CC[C@@H]([C@H]4C)[C@@]57OO6)nn3)ccc12`, the pIC50 in the assay on MDA-MB-231 [2] and in the assay on HT-29 was 6.37 throughout.
Consider `COc1ccc(-c2cn([C@H]3O[C@@H]4O[C@@]5(C)CC[C@H]6[C@H](C)CC[C@@H]([C@@H]3C)[C@@]46OO5)nn2)cc1`, for which the GI50 (with DLD-1; in the assay on HeLa; in the assay on SiHa; in [5]; in the assay with B16; with A 172) was 30 nM throughout.
On to `C[C@@H]1CC[C@H]2[C@@H](C)C(n3cc(-c4ccc(F)cc4)nn3)O[C@@H]3O[C@@]4(C)CC[C@@H]1[C@]32OO4` (some centres not stated), for which the GI50 (in the assay on DLD-1; in the assay with HeLa; in the assay with SiHa; in assay [5]; with B16; with A 172) was 50 nM each time.
Consider `C[C@H]1[C@H](n2nncc2-c2ccccc2)O[C@@H]2O[C@@]3(C)CC[C@H]4[C@H](C)CC[C@@H]1[C@@]24OO3`, for which the GI50 (in the assay with DLD-1; with HeLa; in the assay with SiHa; in assay [5]; with B16; in the assay on A 172) was 40 nM throughout.
With `Cc1ccc(-c2cn(C3O[C@@H]4O[C@@]5(C)CC[C@H]6[C@H](C)CC[C@@H]([C@H]3C)[C@@]46OO5)nn2)cc1` (some centres not stated), the GI50 (with DLD-1; in the assay on HeLa; in the assay with SiHa; in assay [5]; in the assay on B16; with A 172) was 50 nM throughout.
As for `Cc1cc(=O)oc2cc(OCCn3cc(CO[C@H]4O[C@@H]5O[C@@]6(C)CC[C@H]7[C@H](C)CC[C@@H]([C@H]4C)[C@@]57OO6)nn3)ccc12`, the negative logarithm of the IC50 (pIC50) in the assay on MDA-MB-231 [2], in the assay with HCT-116 [4] and in the assay on HT-29 was 6.37 each time.
For `Cc1ccc(-c2cnnn2[C@@H]2O[C@@H]3O[C@@]4(C)CC[C@H]5[C@H](C)CC[C@@H]([C@H]2C)[C@@]35OO4)cc1`, the GI50 (in the assay with DLD-1; in the assay on HeLa; with SiHa; in [5]; with B16; with A 172) was 40 nM each time.
Consider `CCOC(=O)c1cc2ccc(OCCCn3cc(CO[C@H]4O[C@@H]5O[C@@]6(C)CC[C@H]7[C@H](C)CC[C@@H]([C@H]4C)[C@@]57OO6)nn3)cc2oc1=O`, for which the pIC50 in the assay with MDA-MB-231 [2] and with HT-29 was 6.37 in each case.
For `C[C@@H]1[C@@H](n2cc(-c3cccc(Cl)c3)nn2)O[C@@H]2O[C@@]3(C)CC[C@H]4[C@H](C)CC[C@@H]1[C@@]24OO3`, the GI50 (in the assay on DLD-1; in the assay on HeLa; in the assay on SiHa; in [5]; with B16; in the assay on A 172) was 30 nM throughout.
Regarding `C[C@H]1[C@H](OCCNC(=O)c2ccc(COc3ccc(/C=C/S(=O)(=O)Nc4ccccc4Cl)cc3)cc2)O[C@@H]2O[C@@]3(C)CC[C@H]4[C@H](C)CC[C@@H]1[C@@]24OO3`, the pIC50 in the assay with A549, with MDA-MB-231 [3] and in the assay on HT-29 was 7.05 throughout.
In the case of `COc1ccc(-c2cn([C@@H]3O[C@@H]4O[C@@]5(C)CC[C@H]6[C@H](C)CC[C@@H]([C@H]3C)[C@@]46OO5)nn2)cc1`, the GI50 (in the assay with DLD-1; in the assay with HeLa; in the assay with SiHa; in assay [5]; in the assay with B16; in the assay on A 172) was 50 nM throughout.
With `C[C@@H]1CC[C@H]2[C@@H](C)C(n3cc(-c4cccc(Cl)c4)nn3)O[C@@H]3O[C@@]4(C)CC[C@@H]1[C@]32OO4` (some centres not stated), the GI50 (in the assay on DLD-1; with HeLa; in the assay with SiHa; in assay [5]; in the assay on B16; in the assay with A 172) was 50 nM throughout.
As for `CCCCCc1ccc(-c2cn([C@H]3O[C@@H]4O[C@@]5(C)CC[C@H]6[C@H](C)CC[C@@H]([C@@H]3C)[C@@]46OO5)nn2)cc1`, the GI50 (with DLD-1; in the assay on HeLa; in the assay on SiHa; in assay [5]; in the assay on B16; in the assay with A 172) was 30 nM throughout.

What is called pIC50 is −log10 of the IC50, conventionally taken in molar units. One may read the GI50 as the concentration giving 50% growth inhibition.

The values are drawn from ChEMBL document CHEMBL5244230, “Artemisinin-derived hybrids and their anticancer activity” (Eur J Med Chem, 2020).
